Assay results as given in PMC10520499, “Next step in the development of mesoprogestins: the preclinical profile of EC313” (Frontiers in Endocrinology, 2023).
Several values for one entry are separate records, joined by “and”; a condition that tells them apart may be missing. Identical values can stand only once.

Experiments:
[1] = tested on: human uterine fibroid xenografts; experiment: Human uterine fibroid xenografts in NOD-SCID mice; type: in vivo; details: Part B; 0.01 mg/kg/day s.c.
Protocol: Fibroids/Leiomyoma are one of the clinical target indications for the development of EC313. But, there are no very reliable pre-clinical models known at present. From all experimental approaches, the transplantation of human fibroid tissue into immunodeficient mice s.c. resembles the clinical situation most closely. UPA served as a reference compound. There were two study parts: A and B. Part A is already published ([2]). Human uterine fibroid samples (2x2x2 mm; weighting roughly 8 mg) were transplanted s.c. into NOD-SCID mice 3 weeks after ovariectomy. Simultaneously, the animals were supplemented s.c. with E2-releasing pellets (0.05 mg E2/90 days release). The treatment period over 60 days (5 treatment days a week) started immediately after transplantation. There was a sham control, an E2 control, two EC313-group, one Ulipristal (UA) group, and a combination of UPA+EC313 (Part A). […] The animals were sacrificed after a treatment period of 60 days. Graft weights were the primary endpoint (parts A and B); histological findings including immunostainings of the grafts were used as secondary endpoints (part A).

[2] = tested on: immature female ovariectomized Wistar rats; experiment: Uterus growth test in immature ovariectomized rats; type: in vivo, rat; details: daily s.c. doses of up to corresponding to 172 mg/kg body weight
Source text: […] The vehicle served as the negative control. After treatment, the animals were sacrificed on day 4, and their vagina and uterine horns were dissected and weighed.

[3] = tested on: orchiectomized male Wistar rats; experiment: Hershberger assay; type: in vivo, rat; details: 3, 10 and 30 mg/animal/day s.c., 7 days; ± Testosterone propionate 1 mg/animal/day
Protocol: To test EC313 for potential androgenic or anti-androgenic potential, the Hershberger assay was used. Orchiectomized male Wistar rats were treated for 7 consecutive days with daily subcutaneous injections of EC313 (3, 10, and 30 mg/animal/day).
The potential anti-androgenic activity was assessed by co-administration of Testosterone propionate (TP; 1 mg/animal/day s.c.), which also served as the positive control, and EC313. The vehicle served as the negative control. One day after the last treatment, animals were sacrificed and the prostate gland and the seminal vesicles were removed and weighed. The relative weight of these organs, expressed as mg/100 g body weight, served as the endpoint.

[4] = target: T1, human mineralocorticoid receptor (hMR) (Homo sapiens, UniProt P08235); experiment: MR transactivation (U2OS, MMTV-LUC); type: cell-based
T1 construct: host or cells: U2OS, transient co-transfection
T1 sequence (P08235 1-984): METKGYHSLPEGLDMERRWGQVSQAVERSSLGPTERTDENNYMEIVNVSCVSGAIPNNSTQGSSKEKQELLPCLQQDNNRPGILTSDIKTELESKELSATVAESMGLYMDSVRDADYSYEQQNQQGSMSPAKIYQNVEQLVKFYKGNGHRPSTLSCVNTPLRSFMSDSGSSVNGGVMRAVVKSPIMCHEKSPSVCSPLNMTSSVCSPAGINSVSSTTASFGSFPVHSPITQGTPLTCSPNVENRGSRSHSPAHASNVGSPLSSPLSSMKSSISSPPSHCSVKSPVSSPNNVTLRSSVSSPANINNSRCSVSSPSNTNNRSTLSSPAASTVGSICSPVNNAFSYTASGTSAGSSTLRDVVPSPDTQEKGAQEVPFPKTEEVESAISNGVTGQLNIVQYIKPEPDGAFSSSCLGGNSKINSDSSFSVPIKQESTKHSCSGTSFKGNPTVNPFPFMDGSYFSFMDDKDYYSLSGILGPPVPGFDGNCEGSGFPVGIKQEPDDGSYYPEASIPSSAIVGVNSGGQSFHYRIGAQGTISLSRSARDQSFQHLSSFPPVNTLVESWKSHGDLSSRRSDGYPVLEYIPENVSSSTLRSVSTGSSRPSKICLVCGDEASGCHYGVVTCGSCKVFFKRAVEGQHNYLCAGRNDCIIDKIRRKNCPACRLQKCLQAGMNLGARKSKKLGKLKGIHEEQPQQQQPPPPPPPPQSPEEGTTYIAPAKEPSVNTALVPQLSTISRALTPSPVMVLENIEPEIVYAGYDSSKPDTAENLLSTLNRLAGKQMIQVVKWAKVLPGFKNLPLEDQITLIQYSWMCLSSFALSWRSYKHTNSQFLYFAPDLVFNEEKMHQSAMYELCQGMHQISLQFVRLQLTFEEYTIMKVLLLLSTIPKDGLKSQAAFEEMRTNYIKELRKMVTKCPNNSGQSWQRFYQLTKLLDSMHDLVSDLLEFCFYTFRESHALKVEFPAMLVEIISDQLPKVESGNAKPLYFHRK
Source text: The U2OS cell line which expresses the mineralocorticoid receptor was used to study the gene expression on the transcriptional level under the influence of EC313 and the reference compound. The cells were transfected with a vector encoding a human full-length mineralocorticoid receptor (hMR) linked to the reporter vector MMTV/LUC. Cells were transiently and stably transfected in order to reach high protein expression. Next, co-transfected U2OS cells carrying mineralocorticoid receptors and reporter vector MMTV/LUC were stimulated by the tested compounds (Aldosterone or EC313) or the mixture: aldosterone and an appropriate range of concentrations of EC313. The agonist and antagonist properties of EC313 toward tested receptor MR were analyzed using luminescence detection.
In order to develop the transfection assay, plasmid-included vectors coding sequences for the receptor as well as the reporter gene were generated and isolated, respectively. Vector pcDNA3.1 coding sequence for full length of human MR (MR cDNA ORF clone in pcDNA3.1+/C-(K)-DYK) was used as an expression vector for MR and was linked to the reporter system (pGL4.36-MMTV/LUC) building with vector pGL4.36 coding the mineralocorticoid responsive element (MMTV) and firefly luciferase [luc2P/Hygro].
Transfection was performed on a 96-well plate (15.5x10^3 cells per well) in culture medium (RPMI phenol red, 10% FBS, L-Glu) w/o antibiotics according to the manufacturer’s specification. Prior to transfection, plated cells were approximately 70%–80% confluent. 24h later, cells were treated with test compounds overnight.
The properties of EC313 to induce/inhibit tested receptor was studied in agonistic and antagonistic approaches. Co-transfected U2OS cells were stimulated with either aldosterone (0.009 nM - 1200 nM) or EC313 (0.009 nM - 1200 nM) in order to determine and compare the agonist potential of test compounds. The antagonistic activity was checked in competitive interaction between EC313 (0.009 nM - 1200 nM) and 0.4 nM of Aldosterone.

C[C@]12C[C@H](c3ccc(-c4ccoc4)cc3)C3=C4CCC(=O)C=C4CC[C@H]3[C@@H]1CC[C@]21OCCC1=C(F)F [EC313]
anti-fibroid activity at very low dose [1]: demonstrated
estrogenic / anti-estrogenic activity (uterine horn and vagina weights) [2]: neither estrogenic nor anti-estrogenic activity
androgenic / anti-androgenic effects (prostate plus seminal vesicle weights) [3]: neither significant androgenic nor anti-androgenic effects
transactivation of hMR (agonism) [4]: does not transactivate hMR
fold lower potency than Spironolactone ([4]; MR antagonism): approximately 80 fold
IC50 ([4]; MR, 0.4 nM Aldosterone, read-out: IC50, antagonism of Aldosterone-induced transactivation): 2000 nM and ~2000 nM
